Data reported in ChEMBL document CHEMBL5604063, “ASAP - DENV-2 NS2B-NS3 protease fluorescence dose response” (2024).
“And” between values parts separate entries of the source, which are not always exact repeats. Identical values can stand only once.

Target: Genome polyprotein (dengue virus type 2, UniProt P29990)
Assay type: functional, Thailand/16681/1984

Chain of Genome polyprotein (P29990 1346-1475 limits assumed): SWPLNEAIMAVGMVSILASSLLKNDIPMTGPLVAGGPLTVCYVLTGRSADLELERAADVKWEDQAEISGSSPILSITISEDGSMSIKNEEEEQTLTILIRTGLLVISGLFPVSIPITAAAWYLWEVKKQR
Chain of Genome polyprotein (P29990 1476-2093 limits assumed): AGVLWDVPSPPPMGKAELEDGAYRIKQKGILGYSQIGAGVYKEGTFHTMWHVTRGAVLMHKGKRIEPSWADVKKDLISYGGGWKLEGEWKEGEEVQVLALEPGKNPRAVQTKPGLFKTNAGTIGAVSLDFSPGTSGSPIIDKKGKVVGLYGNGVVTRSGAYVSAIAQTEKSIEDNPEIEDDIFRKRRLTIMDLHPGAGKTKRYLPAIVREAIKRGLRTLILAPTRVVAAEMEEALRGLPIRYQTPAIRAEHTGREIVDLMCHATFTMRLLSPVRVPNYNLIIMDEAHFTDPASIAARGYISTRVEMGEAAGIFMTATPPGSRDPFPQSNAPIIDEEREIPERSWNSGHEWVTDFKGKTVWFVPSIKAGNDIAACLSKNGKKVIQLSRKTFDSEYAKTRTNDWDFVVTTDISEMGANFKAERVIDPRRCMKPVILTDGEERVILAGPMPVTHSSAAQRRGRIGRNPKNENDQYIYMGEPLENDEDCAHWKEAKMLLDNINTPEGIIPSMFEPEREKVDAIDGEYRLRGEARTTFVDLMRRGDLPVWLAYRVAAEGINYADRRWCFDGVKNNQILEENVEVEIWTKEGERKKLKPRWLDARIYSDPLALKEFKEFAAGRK

`CC[C@@H](C)c1nc(C)cc(N2CCC(n3ncc(N)c3C(F)(F)F)CC2)n1` and `C[C@@H](O)c1cccc(N2CCC(c3nc(N)ncc3F)CC2)n1` cannot be ordered by IC50: over 99.5 µM for the first, over 99.5 µM for the second.

`Cc1cc(C)c([C@@H](NC(=O)OCc2ccccc2)C(=O)Nc2cccc(CN)c2)c(C)c1` and `Cc1ccc([C@@H](NC(=O)OCc2ccccc2)C(=O)Nc2cccc(CN)c2)cc1C` cannot be ordered by IC50: over 99.5 µM for the first, over 99.5 µM for the second.

Compared with `CCc1cc(COc2ccc(S(=O)(=O)Nc3ccc(Cl)cc3C(=O)O)cc2)no1`, `Cc1ocnc1COc1ccc(S(=O)(=O)Nc2ccc(Cl)cc2C(=O)O)cc1` is higher in IC50: 45.5 µM for the first, over 99.5 µM for the second.

`COc1ccc(CNC(=O)[C@@H](NC(=O)OCc2ccccc2)c2ccc(OCc3ccccc3)cc2)cn1` and `Nc1ccc(CNC(=O)[C@@H](NC(=O)OCc2ccccc2)c2ccc(OCc3ccccc3)cc2)nc1` cannot be ordered by IC50: over 99.5 µM for the first, over 99.5 µM for the second.

First: COC(=O)[C@@H](C)NC(=O)c1cc(Cl)ccc1NS(=O)(=O)c1ccc(Oc2ccccc2Cl)cc1
Second: C[C@@H](NC(=O)c1cc(Cl)ccc1NS(=O)(=O)c1ccc(Oc2ccccc2Cl)cc1)C(=O)O
The IC50 of the first is lower: 39 µM for the first, over 99.5 µM for the second.

`O=C(N[C@@H](C(=O)Nc1ccncc1)c1ccc(OCc2ccccc2)cc1)OCc1ccccc1` and `O=C(N[C@@H](C(=O)Nc1ccccn1)c1ccc(OCc2ccccc2)cc1)OCc1ccccc1` cannot be ordered by IC50: over 99.5 µM for the first, over 99.5 µM for the second.

`O=C(O)c1cc(Cl)ccc1NS(=O)(=O)c1ccc(OCc2ccccn2)cc1` and `O=C(O)c1cc(Cl)ccc1NS(=O)(=O)c1ccc(OCc2cccnc2)cc1` cannot be ordered by IC50: over 99.5 µM for the first, over 99.5 µM for the second.

Compared with `NCc1cccc(NC(=O)[C@@H](NC(=O)OCc2ccccc2)c2ccc(C(F)(F)F)cc2)c1`, `CCc1ccc([C@@H](NC(=O)OCc2ccccc2)C(=O)Nc2cccc(CN)c2)cc1` is higher in IC50: 64.3 µM for the first, over 99.5 µM for the second.

`Cc1ccc2c(c1)CN(C(=O)c1ccc(C3(CN)CC3)cc1)C(C)(C)C2` and `NCCCc1ccc(C(=O)N2CC(c3cccc(Br)c3)C2)cc1` cannot be ordered by IC50: over 99.5 µM for the first, over 99.5 µM for the second.

First: Cc1ncccc1-c1ccc([C@@H](NC(=O)OCc2ccccc2)C(=O)Nc2cccc(CN)c2)cc1
Second: NCc1cccc(NC(=O)[C@@H](NC(=O)OCc2ccccc2)c2ccc(-c3cccc4c3CCO4)cc2)c1
The IC50 of the first is higher: over 99.5 µM for the first, 27.8 µM for the second.

Going from `O=C(O)c1cc(Cl)cc(F)c1NS(=O)(=O)c1ccc(Oc2ccccc2Cl)cc1` to `C[C@@H](Oc1ccc(S(=O)(=O)Nc2ccc(Cl)cc2C(=O)O)cc1)c1ccccc1F`, the IC50 falls from 18.6 µM to 8.2 µM (2.3-fold).

`Cn1c(C(=O)N2CCCc3ccc(C(F)F)cc32)cc2c1CCNC2` and `CN(C(=O)c1ccc2c(c1)[C@H](CN)CCC2)C1CCN(CC(F)F)CC1` cannot be ordered by IC50: over 99.5 µM for the first, over 99.5 µM for the second.

`N[C@H]1CC[C@H](CNC(=O)[C@@H](NC(=O)OCc2ccccc2)c2ccc(OCc3ccccc3)cc2)CC1` and `Cc1cc(CNC(=O)[C@@H](NC(=O)OCc2ccccc2)c2ccc(OCc3ccccc3)cc2)cc(C)n1` cannot be ordered by IC50: over 99.5 µM for the first, over 99.5 µM for the second.

`NCc1cccc(NC(=O)[C@@H](NC(=O)c2cccnc2)c2ccc(OCc3ccccc3)cc2)c1` and `O=C(N[C@H](C(=O)NCc1cccc(CO)c1)c1ccc(OCc2ccccc2)cc1)OCc1ccccc1` cannot be ordered by IC50: over 99.5 µM for the first, over 99.5 µM for the second.

`Cc1cc(C=O)c(O)c(C(=O)N2CC[C@H](CN(C)C)C2)c1` and `Cc1n[nH]c2cc(C(=O)N3CCC(C)(NC(=O)[C@H]4C[C@H](N(C)C)C4)CC3)ccc12` cannot be ordered by IC50: over 99.5 µM for the first, over 99.5 µM for the second.

`O=C(N[C@@H](C(=O)NCc1ccc(CN2CCCC2)cc1)c1ccc(OCc2ccccc2)cc1)OCc1ccccc1` and `O=C(N[C@@H](C(=O)NCc1cccc(CN2CCCCC2)c1)c1ccc(OCc2ccccc2)cc1)OCc1ccccc1` cannot be ordered by IC50: over 99.5 µM for the first, over 99.5 µM for the second.

`NCc1ccccc1C1CCN(C(=O)[C@H]2CCN3CC[C@H]2C3)CC1` and `NCc1cccc(NC(=O)[C@H]2c3ccc(Br)cc3CCN2C(=O)OCc2ccccc2)c1` cannot be ordered by IC50: over 99.5 µM for the first, over 99.5 µM for the second.

`CS(=O)(=O)NCc1cccc(CNC(=O)[C@@H](NC(=O)OCc2ccccc2)c2ccc(OCc3ccccc3)cc2)c1` showed an IC50 of over 99.5 µM.

In the case of `CCOCCNC(=O)c1cc(Cl)ccc1NS(=O)(=O)c1ccc(Oc2ccccc2Cl)cc1`, the IC50 is reported as 20 µM and 20.5 µM.
With `NCCc1ccc(CNC(=O)[C@@H](NC(=O)OCc2ccccc2)c2ccc(OCc3ccccc3)cc2)cc1` the IC50 was 21.2 µM and 21.7 µM.
